Like-named read-outs stand apart in the source and are kept apart here. Where a SMILES comes first, the peptide text is derived from it. Side-chain parts run from the residue outwards. [ ]: non-standard residue; d: D form. The star is where a group is joined. DOTA = O=C(O)CN1CCN(CC(=O)O)CCN(CC(=O)*)CCN(CC(=O)O)CC1; dTyr(3-I) = N[C@H](Cc1ccc(O)c(I)c1)C(=O)O; 2Nal = N[C@@H](Cc1ccc2ccccc2c1)C(=O)O; dNMeOrn = CN[C@H](CCCN)C(=O)O; 4Amb = NCc1ccc(C(=O)O)cc1; 4Abz = Nc1ccc(C(=O)O)cc1
Key:
[1] = Lipophilicity, modified shake-flask method; format: physicochemical; conditions: O/PBS, radiolabeled compound, means ± SD (n=6)
Procedure: The lipophilicity (log PO/PBS) of the ^68Ga- and ^177Lu-labeled compounds in this study was determined via a modified shake-flask method.

[2] = Biodistribution in Daudi xenograft bearing mice; format: in vivo, mouse; conditions: female, CB-17 SCID, mouse, iv, total radioactivity, 48h p.i., means ± SD, n=4-5 animals
Procedure: (§1) The biodistribution of selected compounds was investigated in Daudi (human B-cell lymphoma) xenograft bearing female CB-17 SCID mice (6-8 weeks, Charles River, Sulzfeld, Germany), [29]. All animal experiments were performed in accordance with current animal welfare regulations in Germany (approval #55.2-1-54-2532-71-13).
(§2) Animals (n=4-5 per group) were injected intravenously with 5-10 MBq (0.08-0.11 nmol peptide per mouse) of the respective ^68Ga- and^ 177Lu-labeled CXCR4 ligands in PBS (100 µL) into the tail vein under isoflurane anesthesia. CXCR4-specificity of binding was determined by coinjection of 50 µg AMD3100 per mouse. The animals were sacrificed 1, 6 and 48h post injection (p.i.), and the organs of interest were dissected. The radioactivity was measured in weighted tissue samples using a γ-counter. Data are expressed in % ID/g tissue (mean ± SD).

[3] = system: Daudi (human B-cell lymphoma) xenograft bearing CB-17 SCID mice; assay: Biodistribution in Daudi xenograft bearing mice; format: in vivo, mouse; conditions: for Biodistribution brain / Biodistribution adrenals / Biodistribution femur / Biodistribution heart / Biodistribution kidney / Biodistribution liver / Biodistribution lung / Biodistribution muscle / Biodistribution pancreas / Biodistribution small intestine / Biodistribution spleen / Biodistribution stomach / Biodistribution tumor (Daudi xenograft) / Biodistribution blood / Biodistribution colon: i.v., means ± SD; for Initial activity retained in the Daudi xenografts after 48h: 48h p.i. relative to early time point
Procedure: as §1, §2

[4] = In vivo metabolite analysis (radio-HPLC); parameters: species or system mouse; conditions: CB17 SCID mice, 0.5h p.i., i.v. app. 35 MBq; radio-HPLC of extracts
Procedure: 68Ga-labeling was performed as published previously using a 68Ge/68Ga generator (iTHEMBA Labs, South Africa) and a GallElut + synthesis module (SCINTOMICS GmbH, Germany). Usually, 5 nmol of precursor peptide were used, yielding the 68Ga-labeled peptides in specific activities of 100 to 120 […]
For 177Lu-labeling, the peptides were dissolved in water to yield a 1 mM solution. Of this solution, the required volume was added to 177LuCl3 in 0.04 M HCl (ITG/ITM, Garching, Germany; activity concentration: 370 MBq/500 µl) to achieve a peptide-to -177Lu-activity ratio of 1 nmol peptide per 225 MBq 177LuCl3. To this mixture, 1 M NH4OAc was added (calculated to be 10% of total reaction volume), and the mixture was heated to 90°C for 4 0 min. […]
Human glioma U87 cells overexpressing CD4 and CXCR4 (U87CD4CXCR4) cells were kept in cultivation at least one week before starting the experiment. […] Perkin-Elmer’s LANCE cAMP assay kit (catalog #AD0262) based on time-resolved fluorescence resonance energy transfer (TR -FRET) was utilized to determine the ability of [natLu]DOTA -r -a -ABA -iodo CPCR4 and [ natLu]PentixaTher vs the reference CXCL12 to inhibit cAMP production induced by 5 µM Forskolin. […]
(15,000 g), and the supernatants were subjected to ultrafiltration. […] The blood extract was also analyzed by radio-HPLC. For all extracts the ex traction efficiency was determined in a ɣ -counter.

[5] = 1h p.i., tracer only, γ-counter, n=4-5 (68Ga: n=4)

SMILES: CN1C(=O)[C@@H](Cc2ccc(O)c(I)c2)NC(=O)CNC(=O)[C@H](Cc2ccc3ccccc3c2)NC(=O)[C@H](CCCNC(=N)N)NC(=O)[C@H]1CCCNC(=O)c1ccc(CNC(=O)CN2CCN(CC(=O)O)CCN(CC(=O)O)CCN(CC(=O)O)CC2)cc1 [[^177Lu]PentixaTher, cyclo(D-3-iodo-Tyr^1-D-[NMe]Orn^2(AMBS-([^177Lu]DOTA)-Arg^3-Nal^4-Gly^5), metal not drawn, reference compound] (cyclo([dTyr(3-I)][dNMeOrn]([4Amb-DOTA])R[2Nal]G))
- logD ([1]; octanol/PBS): -1.8 ± 0.2
- tissue to tissue ratio at 48 h ([2]; tumor / blood, read-out: Tumor/organ ratio t/blood): 201 ± 27
- tissue to tissue ratio at 48 h ([2]; tumor / colon, read-out: Tumor/organ ratio t/colon): 13 ± 5
- tissue to tissue ratio at 48 h ([2]; tumor / heart, read-out: Tumor/organ ratio t/heart): 31 ± 4
- tissue to tissue ratio at 48 h ([2]; tumor / kidney, read-out: Tumor/organ ratio t/kidney): 2.7 ± 0.4
- tissue to tissue ratio at 48 h ([2]; tumor / lung, read-out: Tumor/organ ratio t/lung): 16 ± 5
- tissue to tissue ratio at 48 h ([2]; tumor / muscle, read-out: Tumor/organ ratio t/muscle): 85 ± 15
- tissue to tissue ratio at 48 h ([2]; tumor / small intestine, read-out: Tumor/organ ratio t/small intestine): 29 ± 6
- tissue to tissue ratio at 48 h ([2]; tumor / spleen, read-out: Tumor/organ ratio t/spleen): 2.1 ± 0.5
- tissue to tissue ratio at 48 h ([2]; tumor / stomach, read-out: Tumor/organ ratio t/stomach): 27 ± 6
- Biodistribution brain ([3]; 1h p.i., tracer only, γ-counter, n=4-5): 0.05 ± 0.01 %iD/g
- Biodistribution adrenals [3, 5]: 1.5 ± 0.6 %iD/g
- Biodistribution femur [3, 5]: 0.6 ± 0.2 %iD/g
- Biodistribution heart [3, 5]: 0.9 ± 0.3 %iD/g
- Biodistribution kidney [3, 5]: 3.4 ± 0.6 %iD/g
- Biodistribution liver [3, 5]: 10.3 ± 0.8 %iD/g
- Biodistribution lung [3, 5]: 2.5 ± 0.7 %iD/g
- Biodistribution muscle [3, 5]: 0.3 ± 0.1 %iD/g
- Biodistribution pancreas [3, 5]: 0.4 ± 0.1 %iD/g
- Biodistribution small intestine [3, 5]: 0.9 ± 0.2 %iD/g
- Biodistribution spleen [3, 5]: 1.8 ± 0.3 %iD/g
- Biodistribution stomach [3, 5]: 1.2 ± 0.3 %iD/g
- Biodistribution tumor (Daudi xenograft) [3, 5]: 12.4±3.7 %iD/g
- Biodistribution adrenals ([3]; 6h p.i., n=4-5): 0.64 ± 0.13 %iD/g
- Biodistribution blood ([3]; 6h p.i., n=4-5): 0.09 ± 0.01 %iD/g
- Biodistribution brain ([3]; 6h p.i., n=4-5): 0.02 ± 0.005 %iD/g
- Biodistribution femur ([3]; 6h p.i., n=4-5): 0.23 ± 0.02 %iD/g
- Biodistribution heart ([3]; 6h p.i., n=4-5): 0.18 ± 0.02 %iD/g
- Biodistribution kidney ([3]; 6h p.i., n=4-5): 2.52 ± 0.33 %iD/g
- Biodistribution liver ([3]; 6h p.i., n=4-5): 9.59 ± 0.69 %iD/g
- Biodistribution lung ([3]; 6h p.i., n=4-5): 0.42 ± 0.06 %iD/g
- Biodistribution muscle ([3]; 6h p.i., n=4-5): 0.06 ± 0.01 %iD/g
- Biodistribution pancreas ([3]; 6h p.i., n=4-5): 0.09 ± 0.01 %iD/g
- Biodistribution small intestine ([3]; 6h p.i., n=4-5): 0.22 ± 0.04 %iD/g
- Biodistribution spleen ([3]; 6h p.i., n=4-5): 1.35 ± 0.41 %iD/g
- Biodistribution stomach ([3]; 6h p.i., n=4-5): 0.21 ± 0.01 %iD/g
- Biodistribution tumor (Daudi xenograft) ([3]; 6h p.i., n=4-5): 6.79 ± 0.68 %iD/g
- Initial activity retained in the Daudi xenografts after 48h [3]: 25%
- Biodistribution adrenals ([3]; 48h p.i., n=4-5): 0.56 ± 0.08 %iD/g
- Biodistribution blood ([3]; 48h p.i., n=4-5): 0.02 ± 0.001 %iD/g
- Biodistribution brain ([3]; 48h p.i., n=4-5): 0.007 ± 0.002 %iD/g
- Biodistribution femur ([3]; 48h p.i., n=4-5): 0.22 ± 0.05 %iD/g
- Biodistribution heart ([3]; 48h p.i., n=4-5): 0.11 ± 0.01 %iD/g
- Biodistribution kidney ([3]; 48h p.i., n=4-5): 1.20 ± 0.13 %iD/g
- Biodistribution liver ([3]; 48h p.i., n=4-5): 8.25 ± 2.23 %iD/g
- Biodistribution lung ([3]; 48h p.i., n=4-5): 0.21 ± 0.06 %iD/g
- Biodistribution muscle ([3]; 48h p.i., n=4-5): 0.04 ± 0.005 %iD/g
- Biodistribution pancreas ([3]; 48h p.i., n=4-5): 0.08 ± 0.01 %iD/g
- Biodistribution small intestine ([3]; 48h p.i., n=4-5): 0.11 ± 0.02 %iD/g
- Biodistribution spleen ([3]; 48h p.i., n=4-5): 1.58 ± 0.33 %iD/g
- Biodistribution stomach ([3]; 48h p.i., n=4-5): 0.12 ± 0.02 %iD/g
- Biodistribution tumor (Daudi xenograft) ([3]; 48h p.i., n=4-5): 3.27 ± 0.41 %iD/g

SMILES: C[C@@H](NC(=O)[C@@H](CCCNC(=N)N)NC(=O)CN1CCN(CC(=O)O)CCN(CC(=O)O)CCN(CC(=O)O)CC1)C(=O)Nc1ccc(C(=O)NCCC[C@@H]2C(=O)N[C@@H](CCCNC(=N)N)C(=O)N[C@@H](Cc3ccc4ccccc4c3)C(=O)NCC(=O)N[C@H](Cc3ccc(O)cc3)C(=O)N2C)cc1 [[^177Lu]DOTA-r-a-ABA-CPCR4] [metal not drawn] (cyclo([2Nal]G[dY][dNMeOrn]([4Abz-dA-dR-DOTA])R))
- log PO/PBS [1]: -3.0 ± 0.13
- Biodistribution adrenals [3, 5]: 1.16 ± 0.18 %iD/g
- Biodistribution blood [3, 5]: 1.50 ± 0.10 %iD/g
- Biodistribution colon [3, 5]: 0.78 ± 0.28 %iD/g
- Biodistribution femur [3, 5]: 0.86 ± 0.04 %iD/g
- Biodistribution heart [3, 5]: 0.90 ± 0.07 %iD/g
- Biodistribution kidney [3, 5]: 9.74 ± 0.91 %iD/g
- Biodistribution liver [3, 5]: 11.9 ± 1.57 %iD/g
- Biodistribution lung [3, 5]: 3.53 ± 1.20 %iD/g
- Biodistribution muscle [3, 5]: 0.28 ± 0.02 %iD/g
- Biodistribution small intestine [3, 5]: 1.23 ± 0.18 %iD/g
- Biodistribution spleen [3, 5]: 2.41 ± 0.34 %iD/g
- Biodistribution stomach [3, 5]: 1.72 ± 0.16 %iD/g
- Biodistribution tumor (Daudi xenograft) [3, 5]: 18.3±3.7 %iD/g
- Initial activity retained in the Daudi xenografts after 48h [3]: ~50%
- Stable (intact tracer) in blood, urine and liver homogenates [4]: > 99%

SMILES: C[C@@H](NC(=O)[C@@H](CCCNC(=N)N)NC(=O)CN1CCN(CC(=O)O)CCN(CC(=O)O)CCN(CC(=O)O)CC1)C(=O)Nc1ccc(C(=O)NCCC[C@@H]2C(=O)N[C@@H](CCCNC(=N)N)C(=O)N[C@@H](Cc3ccc4ccccc4c3)C(=O)NCC(=O)N[C@H](Cc3ccc(O)c(I)c3)C(=O)N2C)cc1 [[^177Lu]DOTA-r-a-ABA-iodoCPCR4] [metal not drawn] (cyclo([2Nal]G[dTyr(3-I)][dNMeOrn]([4Abz-dA-dR-DOTA])R))
- log PO/PBS [1]: -2.8 ± 0.04
- Biodistribution adrenals [3, 5]: 4.54 ± 1.06 %iD/g
- Biodistribution blood [3, 5]: 2.90 ± 0.32 %iD/g
- Biodistribution colon [3, 5]: 1.19 ± 0.35 %iD/g
- Biodistribution femur [3, 5]: 1.92 ± 0.20 %iD/g
- Biodistribution heart [3, 5]: 1.87 ± 0.32 %iD/g
- Biodistribution kidney [3, 5]: 10.3 ± 0.26 %iD/g
- Biodistribution liver [3, 5]: 27.1 ± 1.87 %iD/g
- Biodistribution lung [3, 5]: 7.06 ± 0.67 %iD/g
- Biodistribution muscle [3, 5]: 0.58 ± 0.07 %iD/g
- Biodistribution pancreas [3, 5]: 0.69 ± 0.14 %iD/g
- Biodistribution small intestine [3, 5]: 1.44 ± 0.22 %iD/g
- Biodistribution spleen [3, 5]: 6.72 ± 0.70 %iD/g
- Biodistribution stomach [3, 5]: 1.95 ± 0.17 %iD/g
- Biodistribution tumor (Daudi xenograft) [3, 5]: 17.2±2.0 %iD/g
- Initial activity retained in the Daudi xenografts after 48h [3]: ~50%
- Stable (intact tracer) in blood, urine and liver homogenates [4]: > 99%

— article PMC7381729, “A new class of PentixaFor- and PentixaTher-based theranostic agents with enhanced CXCR4-targeting efficiency” (Theranostics, 2020)
